Measurements as given in publication PMC4721062, “Oxadiazole-2-oxides may have other functional targets, in addition to SjTGR, through which they cause mortality in Schistosoma japonicum” (Parasites & Vectors, 2016).
“Also recorded” adds a separate entry of the source. Like-named read-outs stand apart in the source and are kept apart here.

Tests used:
recombinant SjTGR = biological target: T1, recombinant SjTGR (Schistosoma japonicum, UniProt B5THG7); assay: Inhibition of TrxR activity of recombinant SjTGR (DTNB assay); format: biochemical; conditions: 50 nM SjTGR, 1 mM NADPH, 15 min preincubation, DTNB reduction; for IC50: read-out: IC50 of SjTGR
T1 sequence (B5THG7 1-596): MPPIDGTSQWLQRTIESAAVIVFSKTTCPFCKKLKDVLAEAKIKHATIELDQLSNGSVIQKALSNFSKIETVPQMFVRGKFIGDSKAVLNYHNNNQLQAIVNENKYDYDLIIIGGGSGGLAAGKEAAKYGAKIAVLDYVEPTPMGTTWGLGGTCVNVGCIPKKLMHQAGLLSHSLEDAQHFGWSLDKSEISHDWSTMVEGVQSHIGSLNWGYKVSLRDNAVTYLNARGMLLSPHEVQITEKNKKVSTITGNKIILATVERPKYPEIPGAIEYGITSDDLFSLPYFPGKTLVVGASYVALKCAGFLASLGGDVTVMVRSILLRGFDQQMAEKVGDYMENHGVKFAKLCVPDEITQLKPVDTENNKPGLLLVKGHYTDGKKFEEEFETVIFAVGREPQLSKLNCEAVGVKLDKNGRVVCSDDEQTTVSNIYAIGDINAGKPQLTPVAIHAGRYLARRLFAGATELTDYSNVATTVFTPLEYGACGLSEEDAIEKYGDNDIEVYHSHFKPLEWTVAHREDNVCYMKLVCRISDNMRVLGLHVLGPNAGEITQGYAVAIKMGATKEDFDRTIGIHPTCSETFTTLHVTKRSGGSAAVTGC
Procedure: The purified recombinant SjTGR proteins were produced according to the method described by Song et al.. The inhibition of TrxR activity by the recombinant SjTGR was performed as reported by Rai et al.. Briefly, 50 nM SjTGR and 1 mM NADPH were incubated with different concentrations of oxadiazole-2-oxides (2, 4, 6, 10, 20 μM) for 15 min at room temperature. Then, potassium phosphate buffer (pH 7.4) containing 10 mM EDTA, 100 μM NADPH, and 3 mM DTNB was added to start the reaction. The increase of absorbance at 412 nm was monitored during the first 2 min. All assays were done in triplicate.
50 nM SjTGR and 1 mM NADPH were incubated with different concentrations of oxadiazole-2-oxides (2, 4, 6, 10, 20 μM) for 15 min at room temperature. Then, potassium phosphate buffer (pH 7.4) containing 10 mM EDTA, 100 μM NADPH, 3 mM DTNB was added to start the reaction. The increase in absorbance at 412 nm was monitored during the first 2 min. All assays were done in triplicate. Results shown are the mean ± SD (n = 3)

juvenile S. japonicum = assay: microbe, parasite or virus in culture; format: cell-based; conditions: for Killing activity 24hr / Killing activity 48hr / Killing activity 72hr / killing at 2 µM / killing at 5 µM / killing at 50 µM: juvenile worms
Procedure: Infected Oncomelania hupensis, provided by the Department of Snail Biology, Jiangsu Institute of Parasitic Diseases, were incubated at 25–28 °C, under illumination, for 2 h to hatch S. japonicum cercariae. The cercariae were collected from the water surface with clean cover glass and placed into a centrifuge tube using pre cooled RPMI 1640. Centrifugation was performed for 1 min at 1500 rpm, and then the steps above were repeated. After centrifugation, the supernatant solution was removed. The cercariae at the bottom were washed twice and resuspended with RPMI 1640. Approximately 20–30 cercariae (1 mL of the resuspension medium) were added to one well in a 24-well culture plate. They were incubated overnight at 37 °C with 5 % CO2. The survival rates and number of tails shed were observed under an inverted microscope. Cercariae that had shed their tails were used as juvenile S. japonicum.
20–30 juvenile worms were transferred into each well of a 24-well culture plate, containing 2 mL RPMI 1640 medium, 20 mM HEPES, 100 IU/mL penicillin, […] streptomycin and 10 % fetal bovine serum. Then, oxadiazole-2-oxides (2, 5, 10, and 50 μM), diluted with the RPMI 1640 medium, were added to their allocated wells. The worms in the negative control wells were treated with equal volumes of RPMI 1640 or DMSO and worms treated with AS were observed as positive controls. The juvenile worms’ survival rates were observed under an inverted phase contrast microscope (Leica, Wetzlar, Germany) at 24, 48 and 72 h. Parasite death was defined as an unclear internal structure of the juvenile worms, with incomplete tegument and contents overflowing radially, or unclear internal structure with complete tegument, but having no motor activity during 1 min of continuous observation. All assays were repeated three times.
^b Data collected by visual examination of worm movement and shape; % D = The number of worms dead / The total number of worms observed, and worms dead judged by unclear internal structure of juvenile worms with uncompleted tegument, and contents overflowing radially, or unclear internal structure with complete tegument, but having no motor activity during 1 min of continuous observation. The data presented are the average of three independent experiments.

adult S. japonicum = assay: microbe, parasite or virus in culture; format: cell-based
Text: ICR mice (20–22 g), were obtained from the Shanghai Sub-Center of Experimental Animals, Chinese Academy of Sciences. They were maintained at the Department of Experimental Animals, Jiangsu Institute of Parasitic Diseases. To infect each mouse, its abdominal skin was exposed to 50 S. japonica cercariae. All of the mice were executed to collect S. japonica adult worms, through portal vein perfusion, 35 days post-infection. The adult S. japonica collected were washed with RPMI 1640 medium and then kept in RPMI 1640 medium (pH 7.5) with HEPES 20 mM, penicillin (100 IU/mL), streptomycin ([…]) and 10 % fetal bovine serum. Then, two pairs of adult worms were transferred into each well of a 24-well culture plate, with 2 mL of the same medium. The worms were cultured at 37 °C in a humid atmosphere with 5 % CO2.
Adult worms were cultured in a 24-well culture plate for 30–60 min at 37 °C, in a humid atmosphere with 5 % CO2. Then, oxadiazole-2-oxides at different concentrations (10, 25, 50, 100 μM) were added. Equal volumes of RPMI 1640 or DMSO were applied as negative controls, while PZQ was applied as a positive control. The adult worm mobility and parasite survival rates were monitored using an inverted phase contrast microscope, at 24, 48 and 72 h. Parasite death was defined as there being no motor activity during 2 min of continuous observation, and morphological and tegumental alterations. All assays were repeated three times.
^b Data collected by visual examination of worm movement and shape; n.e. […] The data presented are the average of three independent experiments.

[1] = Schistosoma japonicum, 2 μM, 24 h, read-out: Killing activity 24hr
[2] = Schistosoma japonicum, 2 μM, 48 h, read-out: Killing activity 48hr
[3] = Schistosoma japonicum, 2 μM, 72 h, read-out: Killing activity 72hr
[4] = Schistosoma japonicum, 5 μM, 24 h, read-out: Killing activity 24hr
[5] = Schistosoma japonicum, 5 μM, 48 h, read-out: Killing activity 48hr
[6] = Schistosoma japonicum, 5 μM, 72 h, read-out: Killing activity 72hr
[7] = Schistosoma japonicum, 50 μM, 24 h, read-out: Killing activity 24hr
[8] = Schistosoma japonicum, 50 μM, 48 h, read-out: Killing activity 48hr
[9] = Schistosoma japonicum, 50 μM, 72 h, read-out: Killing activity 72hr
[10] = Schistosoma japonicum, adult worms, 25 μM, 72 h, read-out: Killing activity 72hr
[11] = Schistosoma japonicum, adult worms, 50 μM, 72 h, read-out: Killing activity 72hr
[12] = Schistosoma japonicum, adult worms, 100 μM, 24 h, read-out: Killing activity 24hr
[13] = Schistosoma japonicum, adult worms, 100 μM, 48 h, read-out: Killing activity 48hr
[14] = Schistosoma japonicum, adult worms, 100 μM, 72 h, read-out: Killing activity 72hr

SMILES	IC50 of SjTGR (recombinant SjTGR)	IC50 (recombinant SjTGR)	Killing activity 24hr (juvenile S. japonicum; 10 μM, 24 h)	Killing activity 48hr (juvenile S. japonicum; 10 μM, 48 h)	Killing activity 72hr (juvenile S. japonicum; 10 μM, 72 h)	Killing activity 24hr (adult S. japonicum; adult worms, 10 μM, 24 h)	Killing activity 48hr (adult S. japonicum; adult worms, 10 μM, 48 h)	Killing activity 72hr (adult S. japonicum; adult worms, 10 μM, 72 h)	Killing activity 24hr (adult S. japonicum; adult worms, 25 μM, 24 h)	Killing activity 48hr (adult S. japonicum; adult worms, 25 μM, 48 h)	Killing activity 24hr (adult S. japonicum; adult worms, 50 μM, 24 h)	Killing activity 48hr (adult S. japonicum; adult worms, 50 μM, 48 h)	killing at 2 µM (juvenile S. japonicum; [1])	killing at 2 µM (juvenile S. japonicum; [2])	killing at 2 µM (juvenile S. japonicum; [3])	killing at 5 µM (juvenile S. japonicum; [4])	killing at 5 µM (juvenile S. japonicum; [5])	killing at 5 µM (juvenile S. japonicum; [6])	killing at 50 µM (juvenile S. japonicum; [7])	killing at 50 µM (juvenile S. japonicum; [8])	also measured
N#Cc1c(-c2ccc(OCCCOc3ccc(-c4no[n+]([O-])c4C#N)cc3)cc2)no[n+]1[O-] [Compound 21]	did not inhibit SjTGR; also recorded: neither did they inhibit the SjTGR activity	> 20 µM	30.0%D	33.3%D	56.7%D	n.e.	sluggish	sluggish	n.e	100%D	66.7%D	100%D	–	–	–	–	–	–	–	–	Killing activity 24hr (juvenile S. japonicum; 2 μM, 24 h): 22.5%D; Killing activity 48hr (juvenile S. japonicum; 2 μM, 48 h): 22.5%D; Killing activity 72hr (juvenile S. japonicum; 2 μM, 72 h): 27.5%D; Killing activity 24hr (juvenile S. japonicum; 5 μM, 24 h): 26.7%D; Killing activity 48hr (juvenile S. japonicum; 5 μM, 48 h): 26.7%D; Killing activity 72hr (juvenile S. japonicum; 5 μM, 72 h): 30.0%D; Killing activity 24hr (juvenile S. japonicum; 50 μM, 24 h): 33.3%D; Killing activity 48hr (juvenile S. japonicum; 50 μM, 48 h): 38.3%D; Killing activity 72hr (juvenile S. japonicum; 50 μM, 72 h): 67.0%D; Killing activity 72hr (adult S. japonicum; adult worms, 25 μM, 72 h): 100%D; Killing activity 72hr (adult S. japonicum; adult worms, 50 μM, 72 h): 100%D; Killing activity 24hr (adult S. japonicum; adult worms, 100 μM, 24 h): 75.0%D; Killing activity 48hr (adult S. japonicum; adult worms, 100 μM, 48 h): 100%D; Killing activity 72hr (adult S. japonicum; adult worms, 100 μM, 72 h): 100%D
N#Cc1c(-c2ccc(CBr)cc2)no[n+]1[O-] [Compound 22]	–	9.7 µM	–	41.4%D	69.0%D	44.4%D	66.7%D	88.9%D	–	–	–	–	18.1%	30.1%	41%	18.6%	30.2%	41.8%	100%	100%	mortality at 50 µM (juvenile S. japonicum; Schistosoma japonicum, 24 h, read-out: Mortality of juvenile worms): > 70%; killing at 50 µM (juvenile S. japonicum; [9]): 100%; mortality at 25 µM (adult S. japonicum; Schistosoma japonicum, 24 h, read-out: Mortality of adult worms): > 75%; killing at 25 µM (adult S. japonicum; Schistosoma japonicum, adult worms, 25 μM, 24 h, read-out: Killing activity 24hr): 90%; killing at 25 µM (adult S. japonicum; Schistosoma japonicum, adult worms, 25 μM, 48 h, read-out: Killing activity 48hr): 100%; killing at 25 µM (adult S. japonicum; [10]): 100%; killing at 50 µM (adult S. japonicum; Schistosoma japonicum, adult worms, 50 μM, 24 h, read-out: Killing activity 24hr): 90.9%; killing at 50 µM (adult S. japonicum; Schistosoma japonicum, adult worms, 50 μM, 48 h, read-out: Killing activity 48hr): 100%; killing at 50 µM (adult S. japonicum; [11]): 100%; killing at 100 µM (adult S. japonicum; [12]): 100%; killing at 100 µM (adult S. japonicum; [13]): 100%; killing at 100 µM (adult S. japonicum; [14]): 100%
N#Cc1c(-c2ccc(COc3ccc4ccccc4c3C=O)cc2)no[n+]1[O-] [Compound 27]	did not inhibit	> 20 µM	15.6%D	24.4%D	30.0%D	n.e.	n.e.	62.5%D	sluggish	sluggish	sluggish	sluggish	9.1%	9.1%	10.6%	14.9%	25.7%	27%	40%	44.4%	killing at 50 µM (juvenile S. japonicum; [9]): 46.7%; killing at 25 µM (adult S. japonicum; [10]): 75%; killing at 50 µM (adult S. japonicum; [11]): 87.5%; killing at 100 µM (adult S. japonicum; [12]): 22.2%; killing at 100 µM (adult S. japonicum; [13]): 33.3%; killing at 100 µM (adult S. japonicum; [14]): 77.8%
N#Cc1c(-c2ccc(COc3cc(=O)oc4ccccc34)cc2)no[n+]1[O-] [Compound 29]	did not inhibit	> 20 µM	30.2%D	31.7%D	65.1%D	n.e.	n.e.	n.e.	n.e.	n.e.	n.e.	sluggish	30%	30%	30%	30%	32.5%	40%	42.3%	51.9%	killing at 50 µM (juvenile S. japonicum; [9]): 75%; killing at 50 µM (adult S. japonicum; [11]): 16.7%; killing at 100 µM (adult S. japonicum; [14]): 66.7%; Killing activity 72hr (adult S. japonicum; adult worms, 25 μM, 72 h): sluggish; Killing activity 24hr (adult S. japonicum; adult worms, 100 μM, 24 h): n.e.; Mortality of adult worms (adult S. japonicum; adult worms, 100 μM, 24 h): did not cause death; Killing activity 48hr (adult S. japonicum; adult worms, 100 μM, 48 h): sluggish
